# Reference: article PMC8036603, “Small Molecule Inhibitors of White Spot Syndrome Virus: Promise in Shrimp Seedling Culture” (International Journal of Molecular Sciences, 2021)
# Like-named read-outs stand apart in the source and are kept apart here.
# Columns and labels:
# [1] = test system: white spot syndrome virus (WSSV); test: Anti-WSSV activity in shrimp larvae, co-incubation, copy number of viral genome by RT-qPCR; type: in vivo, Litopenaeus vannamei
# [2] = Acute toxicity assay in shrimp larvae; type: in vivo, Litopenaeus vannamei; settings: Litopenaeus vannamei (shrimp) larvae, in vivo, other: immersion of larvae in test solutions, 28 °C, 95% CI in brackets; for LC50 at 24 h: 24 h exposure, read-out: LC50 (mg/L; 95% CI) 24 h; for LC50 at 48 h: 48 h exposure, read-out: LC50 (mg/L; 95% CI) 48 h; for LC50 at 72 h: 72 h exposure, read-out: LC50 (mg/L; 95% CI) 72 h
# Protocol: (§1) Shrimp (L. vannamei) larvae (total length: 0.5 ± 0.04 cm, body weight: 4.2 ± 0.4 mg, mean ± SD) were provided by Zhejiang Mariculture Research Institute Qingjiang Station (Wenzhou, China). The larvae were maintained in a culture pond at 28 °C, fed four times a day with commercial feed pellets, and collected randomly for PCR testing to verify the WSSV-free status prior to the trial.
# (§2) Acute toxicity of the coumarin derivatives was investigated by exposing larvae to a range of compound concentrations, from 0.1 mg/L to 100 mg/L of coumarin derivatives, where the dose setting was based on the data from preliminary tests in our laboratory. A DMSO-control (2%, v/v, the highest percentage of DMSO in treatments) served as the control. During the experiment, every 20 larvae were moved into six-well plates filled with 6 mL/per well freshly prepared test solutions for a 72-h incubation at 28 °C with a natural photoperiod. […] To avoid deterioration of water quality, dead shrimps were immediately removed at the point of observation. Three replicate experiments were performed.
# (§3) Compound response curves were represented by a logistic sigmoidal function with a maximal effect level (Amax) and Hill coefficient representing the sigmoidal transition (Origin 8.1; http://www.originlab.com, accessed on 25 March 2021). Statistical analyses were performed using SPSS (version 18.0) statistical software (SPSS Inc., Chicago, IL, USA). The LC50 and EC50 values with 95% CIs were calculated using probit analysis. Virus titers were log10-transformed prior to statistical analyses. Unpaired Student’s t-tests were used to compare coumarin-treated samples and negative-control DMSO samples for determining significance and data are presented as mean values ± SD.
# [3] = Solubility / precipitation in aquacultural water; type: physicochemical; settings: for lowest precipitation concentration / lowest precipitation concentration (bracketed value in LC50 48 h column) / lowest precipitation concentration (bracketed value in LC50 72 h column): test range 0.4~100 mg/L, aquacultural water, LC50 NONE
# Protocol: Prior to evaluation of the anti-WSSV activity of coumarins, the safety doses for larvae needed to be determined. […] In contrast, the electron-withdrawing group was more toxic than the electron-donating group, with the LC50 of A5‒A8 being <5 mg/L at 72 h. […] Based on preliminary analysis of the structure-activity relationship (SAR) of similar spatial structures with different substituents of electron-donating and electron-withdrawing groups to coumarins A1, B1, and C1, we considered that […] of compounds; this provides a basis for further research.
# All conventional reagents and solvents are purchased directly from commercial companies and no further purification is required. Organic solvents were purchased from Sinopharm chemical reagent Co., Ltd. and purified by distillation and moisture was excluded from the glass apparatus using CaCl2 drying tubes. Throughout this study, silica gel H (200–300 mesh; Qingdao Marine Chemical Factory, Qingdao, China) was used for the column chromatography. For thin layer chromatographic (TLC) plates, Silica gel (GF254) (Qingdao Marine Chemical Factory, Qingdao, China) were used for thin layer chromatographic (TLC) analysis, and all of the spots and bands were detected by UV irradiation (254, 365 nm). The intermediates and products were characterized by electrospray ionization mass spectrometry (TripleTOF5600þ; AB SCIEX Pte. Ltd., Boston, MA, USA), ^1H NMR and ^13C NMR (Bruker AM500 spectrometer; Bruker Corporation, Berne, Switzerland). The derivatives were dissolved in 100% dimethyl sulfoxide (DMSO; Beyotime Biotechnology, Haimen, China), stored at 4 °C prior to antiviral evaluation, and used within 6 months. For solubility, the stock solutions, at a concentration of 50 mg/mL, were sonicated for approximately 10 min to ensure that the derivatives were fully dissolved and mixed.
# [4] = test system: white spot syndrome virus (WSSV); settings: cited from earlier work
# [5] = test system: Shrimp (L. vannamei) larvae; test: Acute toxicity assay in shrimp larvae; type: in vivo, Litopenaeus vannamei; settings: after 72 h of exposure
# Protocol: as §1, §2, §3
# [6] = Whispovirus xiabaidian, 72 h, read-out: EC50 (mg/L; 95% CI), median effective concentration, WSSV-infected larvae, copy number of viral genome, 72 h; 95% CI in brackets
# [7] = WSSV-infected larvae, copy number of viral genome, 72 h; 95% CI in brackets
# [8] = Whispovirus xiabaidian, 72 h, WSSV-infected larvae, copy number of viral genome, 72 h; 95% CI in brackets; read-out: EC50 (mg/L; 95% CI), median effective concentration
# [9] = six-point dose-response, viral genome copy number in larvae
Compound,LC50 at 24 h [2] [mg/L],LC50 at 48 h [2] [mg/L],LC50 at 72 h [2] [mg/L],also measured
N#CC1=C(N)Oc2c(c(=O)oc3ccccc23)C1c1ccccc1 (centres unmarked) [C1],18.4,16.6,9.18,"EC50 [1, 6]: 2.9 mg/L"
N#CC1=C(N)Oc2c(c(=O)oc3ccccc23)C1c1ccc(C#N)cc1 (centres unmarked) [C9],–,–,–,"EC50 [1, 6]: 60.5 mg/L"
"Cc1ccc(C2NC(=S)Nc3c2c(=O)oc2ccccc32)cc1 (centres unmarked) [B2, 2-thioxo-4-(p-tolyl)-1,2,3,4-tetrahydro-5H-chromeno[4,3-d]pyrimidin-5-one]",23.9,18.6,14.7,–
"O=c1oc2ccccc2c2c1C(c1ccc(Br)cc1)NC(=S)N2 (centres unmarked) [B7, 4-(4-bromophenyl)-2-thioxo-1,2,3,4-tetrahydro-5H-chromeno[4,3-d]pyrimidin-5-one]",10,4.81,4.46,–
"O=C1Nc2c(c(=O)oc3ccccc23)C(c2ccc(F)cc2)N1 (centres unmarked) [A5, 4-(4-fluorophenyl)-3,4-dihydro-2H-chromeno[4,3-d]pyrimidine-2,5(1H)-dione]",16.6,11.7,10.1,"EC50 (mg/L; 95% CI), median effective concentration [1, 7]: 08.416 (7.137~11.317) mg/L; EC50 [1, 8]: < 10 mg/L"
"O=C1Nc2c(c(=O)oc3ccccc23)C(c2ccc(O)cc2)N1 (centres unmarked) [A4, 4-(4-hydroxyphenyl)-3,4-dihydro-2H-chromeno[4,3-d]pyrimidine-2,5(1H)-dione]",–,–,–,"EC50 [1, 6]: 21.7 mg/L; inhibitory efficiency on WSSV replication [1, 9]: exceeded 90%; lowest precipitation concentration [3]: NONE (50) mg/L; lowest precipitation concentration (bracketed value in LC50 48 h column) [3]: NONE (50) mg/L; lowest precipitation concentration (bracketed value in LC50 72 h column) [3]: NONE (50) mg/L"
"N#Cc1ccc(C2NC(=S)Nc3c2c(=O)oc2ccccc32)cc1 (centres unmarked) [B9, 4-(5-oxo-2-thioxo-1,3,4,5-tetrahydro-2H-chromeno[4,3-d]pyrimidin-4-yl)benzonitrile]",37.1,31.5,9.63,–
C=CCN1C(=O)/C(=C/c2ccc(-c3ccccc3)o2)SC1=S [LJ001],–,–,–,half-life in aquaculture water [4]: less than 2 days
COc1ccc(C2C(C#N)=C(N)Oc3c2c(=O)oc2ccccc32)cc1 (centres unmarked) [C3],22.3,17.3,17.3,"EC50 [1, 6]: 14.8 mg/L"
"COc1ccc(C2NC(=O)Nc3c2c(=O)oc2ccccc32)cc1 (centres unmarked) [A3, 4-(4-methoxyphenyl)-3,4-dihydro-2H-chromeno[4,3-d]pyrimidine-2,5(1H)-dione]",26.9,24.5,21.1,"EC50 [1, 8]: 14.9 mg/L"
"O=C1Nc2c(c(=O)oc3ccccc23)C(c2ccccc2)N1 (centres unmarked) [A1, 4-phenyl-3,4-dihydro-2H-chromeno[4,3-d]pyrimidine-2,5(1H)-dione]",95.5,71.4,32.5,"EC50 [1, 8]: 21.5 mg/L"
"COc1ccc(C2NC(=S)Nc3c2c(=O)oc2ccccc32)cc1 (centres unmarked) [B3, 4-(4-methoxyphenyl)-2-thioxo-1,2,3,4-tetrahydro-5H-chromeno[4,3-d]pyrimidin-5-one]",66.2,64.1,41.7,"EC50 [1, 8]: 25.6 mg/L"
N#CC1=C(N)Oc2c(c(=O)oc3ccccc23)C1c1ccc(O)cc1 (centres unmarked) [C4],–,–,–,"EC50 [1, 8]: 61.2 mg/L; inhibitory efficiency on WSSV replication [1, 9]: exceeded 90%"
"O=c1oc2ccccc2c2c1C(c1ccc([N+](=O)[O-])cc1)NC(=S)N2 (centres unmarked) [B8, 4-(4-nitrophenyl)-2-thioxo-1,2,3,4-tetrahydro-5H-chromeno[4,3-d]pyrimidin-5-one]",13.6,7.48,3.06,–
"O=C1Nc2c(c(=O)oc3ccccc23)C(c2ccc(Cl)cc2)N1 (centres unmarked) [A6, 4-(4-chlorophenyl)-3,4-dihydro-2H-chromeno[4,3-d]pyrimidine-2,5(1H)-dione]",2.58,2.48,2.35,–
N#CC1=C(N)Oc2c(c(=O)oc3ccccc23)C1c1ccc(F)cc1 (centres unmarked) [C5],–,–,–,"EC50 [1, 6]: 8.82 mg/L; inhibitory efficiency on WSSV replication [1, 9]: exceeded 90%; lowest precipitation concentration [3]: NONE (16) mg/L; lowest precipitation concentration (bracketed value in LC50 48 h column) [3]: NONE (16) mg/L; lowest precipitation concentration (bracketed value in LC50 72 h column) [3]: NONE (16) mg/L; solubility in aquacultural water ([3]; tested concentration 16 mg/L, 28 °C): insoluble; signs of toxicity at the saturation concentration [5]: No signs of toxicity were observed"
"O=c1oc2ccccc2c2c1C(c1ccc(O)cc1)NC(=S)N2 (centres unmarked) [B4, 4-(4-hydroxyphenyl)-2-thioxo-1,2,3,4-tetrahydro-5H-chromeno[4,3-d]pyrimidin-5-one]",–,–,–,"EC50 [1, 6]: 22.6 mg/L; inhibitory efficiency on WSSV replication [1, 9]: exceeded 90%; lowest precipitation concentration [3]: NONE (50) mg/L; lowest precipitation concentration (bracketed value in LC50 48 h column) [3]: NONE (50) mg/L; lowest precipitation concentration (bracketed value in LC50 72 h column) [3]: NONE (50) mg/L"
"O=c1oc2ccccc2c2c1C(c1ccc(Cl)cc1)NC(=S)N2 (centres unmarked) [B6, 4-(4-chlorophenyl)-2-thioxo-1,2,3,4-tetrahydro-5H-chromeno[4,3-d]pyrimidin-5-one]",8.85,6.63,4.5,–
N#CC1=C(N)Oc2c(c(=O)oc3ccccc23)C1c1ccc(Cl)cc1 (centres unmarked) [C6],–,44.2,17.7,"EC50 [1, 6]: 8.54 mg/L; inhibitory efficiency on WSSV replication [1, 9]: exceeded 90%"
C=CCN1C(=O)S/C(=C\c2ccc(-c3ccccc3)o2)C1=O [LJ025],–,–,–,half-life in aquaculture water [4]: less than 2 days
"O=C1Nc2c(c(=O)oc3ccccc23)C(c2ccc([N+](=O)[O-])cc2)N1 (centres unmarked) [A8, 4-(4-nitrophenyl)-3,4-dihydro-2H-chromeno[4,3-d]pyrimidine-2,5(1H)-dione]",8.76,3.43,1.61,–
"O=C1Nc2c(c(=O)oc3ccccc23)C(c2ccc(Br)cc2)N1 (centres unmarked) [A7, 4-(4-bromophenyl)-3,4-dihydro-2H-chromeno[4,3-d]pyrimidine-2,5(1H)-dione]",14.1,5.68,3.37,–
"N#Cc1ccc(C2NC(=O)Nc3c2c(=O)oc2ccccc32)cc1 (centres unmarked) [A9, 4-(2,5-dioxo-1,3,4,5-tetrahydro-2H-chromeno[4,3-d]pyrimidin-4-yl)benzonitrile]",19.8,18,7.33,–
"O=c1oc2ccccc2c2c1C(c1ccc(F)cc1)NC(=S)N2 (centres unmarked) [B5, 4-(4-fluorophenyl)-2-thioxo-1,2,3,4-tetrahydro-5H-chromeno[4,3-d]pyrimidin-5-one]",16.6,8.87,8.4,–
"O=c1oc2ccccc2c2c1C(c1ccccc1)NC(=S)N2 (centres unmarked) [B1, 4-phenyl-2-thioxo-1,2,3,4-tetrahydro-5H-chromeno[4,3-d]pyrimidin-5-one]",15,12.8,10.5,–
"Cc1ccc(C2NC(=O)Nc3c2c(=O)oc2ccccc32)cc1 (centres unmarked) [A2, 4-(p-tolyl)-3,4-dihydro-2H-chromeno[4,3-d]pyrimidine-2,5(1H)-dione]",15,14.3,10,"EC50 (mg/L; 95% CI), median effective concentration [1, 7]: 05.037 (4.076~7.593) mg/L; EC50 [1, 8]: < 10 mg/L"
